# Reference: patent US4213999A, “Inhibition of lipogenesis” (Shell Oil Company, priority 1979, dated 1980)
# Test system: lipogenesis in swine adipose tissue
# Assay: Inhibition of lipogenesis (lipid synthesis from glucose-U^14 C) in swine adipose tissue slices
# Type: cell-based
# Conditions: Sus scrofa, 100 micrograms per milliliter of incubation mixture, 37° C., 2 hours, 300 microunits of insulin, 5% DMSO, triplicate, read-out: Percent Inhibition of lipogenesis (lipid synthesis) compared to control tests
# Source text: The manner in which they cause this effect is not known with certainty; it is believed that they interfere with the synthesis of fatty acids in the tissues. Their effectiveness for this purpose has been ascertained by immersing samples of swine adipose tissue in a liquid medium containing radioactive glucose and the test chemical for a period of time, then isolating the lipid from the treated tissue and determining the uptake of the radioactive carbon by means of scintillation counting techniques. These tests were conducted in swine adipose tissue because in swine, the primary site of lipogenesis--i.e., fatty acid synthesis--appears to be adipose tissue.
# Described in more detail, the tests were conducted according to the following general procedure:
# 150 milligrams of slices of swine adipose tissue were incubated at 37° C. for 2 hours with shaking in 3 milliliters of Krebs-Ringer bicarbonate solution containing one-half of the normal calcium ion concentration, 60 micromoles of glucose, 0.5 micro-Curie of glucose-U^14 C, and 300 microunits of insulin, and 5% dimethyl sulfoxide (DMSO). The test compound was added as a solution or suspension in DMSO and was present as a concentration of 100 micrograms per milliliter of incubation mixture.
# The incubation was terminated by addition of 0.25 milliliter of 1 N sulfuric acid. The resulting mixture was extracted with a total of 25 milliliters of chloroform:methanol (2:1, v/v). The extracts were washed according to Folch et al. (J. Biol. Chem., 226, 497-509, (1957)), air dried, and counted in a liquid scintillation counter with 15 milliliters of counting fluid (two parts toluene containing 0.4% w/v New England Nuclear Omnifluor: 1 part Triton X-100). The tests were conducted in triplicate and were accompanied by control tests in which all ingredients,proportions and conditions were the same except that no test compound was included. From the data obtained were calculated the percent inhibition of lipid synthesis by the test compound. The data obtained are reported as the percent inhibition of lipogenesis compared to the results obtained in the control tests wherein only the test compound was omitted.
row,Compound,inhibition at 100 µg/mL [%]
1,"CCOC(=O)c1cc2cc(Cc3ccccc3)ccc2o1 [Compound 1, Ethyl 5-benzylbenzofuran-2-carboxylate]",45
2,CCCCCCOc1ccc2oc(C(=O)OCC)cc2c1 [Compound 2],23
3,CCOC(=O)c1cc2cc(C(=O)c3ccccc3)ccc2o1 [Compound 3],47
4,"CCOC(=O)c1cc2c(Oc3ccccc3)cccc2o1 [Compound 4, Ethyl 4-phenoxybenzofuran-2-carboxylate]",28
5,"CCOC(=O)c1cc2cc(-c3ccc(C(C)=O)cc3)ccc2o1 [Compound 5, Ethyl 5-(4-acetylphenyl)benzofuran-2-carboxylate]",24
6,"CCOC(=O)c1cc2cc(-c3ccc(OC(C)=O)cc3)ccc2o1 [Compound 6, Ethyl 5-(4-acetyloxyphenyl)benzofuran-2-carboxylate]",56
7,"CCOC(=O)c1cc2cc(-c3ccc(C(C)O)cc3)ccc2o1 (stereo not drawn) [Compound 7, Ethyl 5-(4-(1-hydroxyethyl)phenyl)benzofuran-2-carboxylate]",71
8,CCOC(=O)c1cc2cc(-c3ccc(NC(C)=O)cc3)ccc2o1 [Compound 8],52
9,"CCOC(=O)c1cc2cc(-c3ccc(N)cc3)ccc2o1 [Compound 9, Ethyl 5-(4-aminophenyl)benzofuran-2-carboxylate]",45
10,"CCOC(=O)C1Cc2cc(-c3ccccc3)ccc2O1 (stereo not drawn) [Compound 10, Ethyl 2,3-dihydro-5-phenylbenzofuran-2-carboxylate]",21
11,CCOC(=O)C1Cc2cc(Cc3ccccc3)ccc2O1 (stereo not drawn) [Compound 11],40
12,C=CCOC(=O)C1Cc2cc(Cc3ccccc3)ccc2O1 (stereo not drawn) [Compound 12],36
13,CCOC(=O)C1Cc2c(Oc3ccccc3)cccc2O1 (stereo not drawn) [Compound 13],20
14,COC(=O)C1Cc2cc(-c3ccc(C(C)O)cc3)ccc2O1 (stereo not drawn) [Compound 14],85
15,CCOC(=O)C1Cc2cc(-c3ccc(NC(C)=O)cc3)ccc2O1 (stereo not drawn) [Compound 15],88
16,CCOC(=O)C1Cc2cc(C3CCCCC3)ccc2O1 (stereo not drawn) [Compound 16],21
17,CCOC(=O)C1Cc2ccc(Oc3ccccc3)cc2O1 (stereo not drawn) [Compound 17],29
18,"CCOC(=O)C1Cc2cc(-c3ccc(Cl)cc3)ccc2O1 (stereo not drawn) [Compound 18, Ethyl 2,3-dihydro-5-(4-chlorophenyl)benzofuran-2-carboxylate]",28
